Molecular target: Beta-1 adrenergic receptor (Homo sapiens, UniProt P08588)
Test: Agonist activity at human adrenergic beta1 receptor expressed in CHO cells assessed as cAMP accumulation

Sequence of Beta-1 adrenergic receptor (P08588 whole entry): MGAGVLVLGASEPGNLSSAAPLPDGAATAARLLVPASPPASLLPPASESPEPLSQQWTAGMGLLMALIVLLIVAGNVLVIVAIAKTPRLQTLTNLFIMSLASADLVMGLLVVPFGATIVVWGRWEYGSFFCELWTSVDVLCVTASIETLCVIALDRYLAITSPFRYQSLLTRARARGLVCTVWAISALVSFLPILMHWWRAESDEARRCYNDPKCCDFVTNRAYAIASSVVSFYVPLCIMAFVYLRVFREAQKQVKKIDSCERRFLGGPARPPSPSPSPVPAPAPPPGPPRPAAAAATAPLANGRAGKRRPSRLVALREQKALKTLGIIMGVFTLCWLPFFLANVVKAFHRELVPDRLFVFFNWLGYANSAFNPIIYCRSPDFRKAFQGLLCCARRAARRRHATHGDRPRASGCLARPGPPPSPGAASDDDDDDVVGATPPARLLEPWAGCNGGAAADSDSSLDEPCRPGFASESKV

- EC50: 79 nM
Compound: O=c1[nH]cc(O)n1-c1ccc(CCCCOCCCCCCNC[C@H](O)c2ccc(O)c(CO)c2)cc1

From BindingDB's records for doi:10.1016/j.bmc.2011.05.064 (Glaxosmithkline, 2011)
